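Exposure lasted 48 hours, with cells grown in 96-well plates and compounds tested at five concentrations. GI50 = concentration required for 50% inhibition of growth.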 The source made the active and inactive calls. No stated cut-off is given here; in the data, active = GI50 up to about 1.1 µM and inactive = higher.
Key:
Test in all cases: DTP human tumour cell line panel, 48 h
[1] = test system: OVCAR-5
[2] = test system: NCI-H522
[3] = test system: Hs-578T
[4] = test system: MDA-MB-231
[5] = test system: SN12C
[6] = test system: DU-145
[7] = test system: UACC-62
[8] = test system: SF-539
[9] = test system: SF-295
[10] = test system: UACC-257
[11] = test system: ACHN
[12] = test system: UO-31
[13] = test system: HL-60
[14] = test system: PC-3
[15] = test system: CAKI-1
[16] = test system: HOP-62
[17] = test system: KM12
[18] = test system: A498
[19] = test system: T47D
[20] = test system: K562

Measured: GI50

COc1cc(/C=C2\S/C(=N/Nc3nc(-c4ccc(Br)cc4)cs3)NC2=O)cc(OC)c1OC
inactive: [1] 18.2 µM | [2] 12.5 µM | [3] 11.9 µM | [4] 14.3 µM | [5] 28.6 µM | [6] 19.3 µM | [7] 11.1 µM | [8] 8.83 µM | [9] 12.4 µM | [10] 18.2 µM | [11] 11 µM | [12] 3.91 µM | [13] 2.08 µM | [14] 4.03 µM | [15] 18.2 µM | [16] 10.5 µM | [17] 7.73 µM

CC(C)(Br)C(Br)CCC1(C(Br)CBr)CO1 (stereo not drawn)
inactive: [1] > 10 µM | [2] > 10 µM | [4] > 10 µM | [5] > 10 µM | [6] > 10 µM | [7] > 10 µM | [8] > 10 µM | [18] > 10 µM | [19] > 10 µM | [9] > 10 µM | [20] > 10 µM | [11] > 10 µM | [12] > 10 µM | [13] > 10 µM | [14] > 10 µM | [15] > 10 µM | [16] > 10 µM | [17] > 10 µM

COc1cc(COC(=O)N2CSCC2C(=O)O)c([N+](=O)[O-])cc1OC (stereo not drawn)
inactive: [1] > 100 µM | [3] > 100 µM | [5] > 100 µM | [6] > 100 µM | [7] > 100 µM | [8] > 100 µM | [19] > 100 µM | [9] > 100 µM | [20] > 100 µM | [10] > 100 µM | [11] > 100 µM | [12] > 100 µM | [13] > 100 µM | [14] > 100 µM | [16] > 100 µM | [17] > 100 µM

CCN=C=NCCCN(C)C
inactive: [1] > 100 µM | [2] > 100 µM | [3] > 100 µM | [4] > 100 µM | [5] > 100 µM | [6] > 100 µM | [7] > 100 µM | [8] > 100 µM | [18] > 100 µM | [9] > 100 µM | [20] > 100 µM | [10] > 100 µM | [11] > 100 µM | [12] > 100 µM | [13] > 100 µM | [14] > 100 µM | [15] > 100 µM | [16] > 100 µM | [17] > 100 µM

c1cncc(C2(c3cc4ccccc4[nH]3)COCO2)c1 (stereo not drawn)
inactive: [1] > 100 µM | [3] > 100 µM | [4] > 100 µM | [6] > 100 µM | [7] 96.8 µM | [8] > 100 µM | [19] > 100 µM | [9] > 100 µM | [20] > 100 µM | [10] > 100 µM | [11] 77.3 µM | [12] 58.3 µM | [13] 32.7 µM | [14] 94.2 µM | [15] > 100 µM | [16] > 100 µM | [17] > 100 µM

OC(CC(c1ccccc1)c1ccc(Cl)cc1)c1ccc(Cl)cc1 (stereo not drawn)
inactive: [1] 24.3 µM | [2] 25.1 µM | [3] 48.1 µM | [5] 25.2 µM | [6] 44.9 µM | [7] 30.3 µM | [8] 21.4 µM | [18] 25.8 µM | [19] 32.6 µM | [9] 34 µM | [20] 32.4 µM | [10] 29.4 µM | [11] 27.1 µM | [12] 33.3 µM | [13] 24.9 µM | [14] 34.9 µM | [15] 27.8 µM | [16] 36.4 µM | [17] 30.8 µM

CCOC(=O)CC(=O)N(c1ccc(OC)cc1)C(C(=O)OC)c1ccccc1 (stereo not drawn)
inactive: [1] > 100 µM | [2] > 100 µM | [3] > 100 µM | [5] > 100 µM | [6] > 100 µM | [7] > 100 µM | [8] > 100 µM | [19] > 100 µM | [9] > 100 µM | [20] > 100 µM | [10] > 100 µM | [11] > 100 µM | [12] 96.2 µM | [14] > 100 µM | [15] > 100 µM | [16] > 100 µM | [17] > 100 µM
